From patent US20260207572A1, “METHODS AND COMPOSITIONS FOR TREATMENT OF SUBJECTS WITH HEPATIC IMPAIRMENTS” (ELEVAR THERAPEUTICS, INC., priority 2022, published 2026)

Legend:
[1] = target: T1, CYP1A2 (Homo sapiens, UniProt P05177); experiment: In vitro CYP phenotyping and metabolism study, recombinant CYP1A2; format: in vitro ADME
T1 sequence (P05177 1-516): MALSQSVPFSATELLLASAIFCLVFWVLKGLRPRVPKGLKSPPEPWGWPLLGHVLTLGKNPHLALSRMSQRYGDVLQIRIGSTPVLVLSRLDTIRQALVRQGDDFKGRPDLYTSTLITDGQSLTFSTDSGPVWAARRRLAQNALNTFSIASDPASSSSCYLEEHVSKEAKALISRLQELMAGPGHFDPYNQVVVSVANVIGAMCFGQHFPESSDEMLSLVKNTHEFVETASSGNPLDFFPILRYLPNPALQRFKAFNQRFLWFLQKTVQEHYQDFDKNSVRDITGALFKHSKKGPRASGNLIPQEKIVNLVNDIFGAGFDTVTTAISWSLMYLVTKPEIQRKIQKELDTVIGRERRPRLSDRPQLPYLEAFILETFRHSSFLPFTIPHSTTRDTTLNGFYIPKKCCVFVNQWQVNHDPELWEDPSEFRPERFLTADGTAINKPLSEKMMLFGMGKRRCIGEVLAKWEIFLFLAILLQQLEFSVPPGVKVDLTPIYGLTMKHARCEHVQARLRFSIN
Experimental: (§1) Recently, an in vitro cytochrome (CYP) phenotyping and metabolism study was performed.

[2] = target: T2, CYP2B6 (Homo sapiens, UniProt P20813); experiment: In vitro CYP phenotyping and metabolism study, recombinant CYP2B6; format: in vitro ADME
T2 sequence (P20813 1-491): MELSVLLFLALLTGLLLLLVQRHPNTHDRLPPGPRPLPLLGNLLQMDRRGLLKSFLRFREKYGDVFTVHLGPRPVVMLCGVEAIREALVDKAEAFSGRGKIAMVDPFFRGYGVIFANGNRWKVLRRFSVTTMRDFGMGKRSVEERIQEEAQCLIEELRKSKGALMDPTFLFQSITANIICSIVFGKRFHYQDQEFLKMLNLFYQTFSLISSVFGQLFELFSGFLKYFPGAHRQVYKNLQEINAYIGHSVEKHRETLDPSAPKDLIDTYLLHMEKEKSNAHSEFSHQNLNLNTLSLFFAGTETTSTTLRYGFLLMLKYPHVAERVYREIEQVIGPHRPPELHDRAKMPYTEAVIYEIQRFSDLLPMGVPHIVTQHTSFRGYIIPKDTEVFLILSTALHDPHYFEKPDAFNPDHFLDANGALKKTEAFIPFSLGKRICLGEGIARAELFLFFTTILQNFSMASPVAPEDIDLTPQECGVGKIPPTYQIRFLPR
Experimental: as §1

[3] = target: T3, CYP2C8 (Homo sapiens, UniProt P10632); experiment: In vitro CYP phenotyping and metabolism study, recombinant CYP2C8; format: in vitro ADME
T3 sequence (P10632 1-490): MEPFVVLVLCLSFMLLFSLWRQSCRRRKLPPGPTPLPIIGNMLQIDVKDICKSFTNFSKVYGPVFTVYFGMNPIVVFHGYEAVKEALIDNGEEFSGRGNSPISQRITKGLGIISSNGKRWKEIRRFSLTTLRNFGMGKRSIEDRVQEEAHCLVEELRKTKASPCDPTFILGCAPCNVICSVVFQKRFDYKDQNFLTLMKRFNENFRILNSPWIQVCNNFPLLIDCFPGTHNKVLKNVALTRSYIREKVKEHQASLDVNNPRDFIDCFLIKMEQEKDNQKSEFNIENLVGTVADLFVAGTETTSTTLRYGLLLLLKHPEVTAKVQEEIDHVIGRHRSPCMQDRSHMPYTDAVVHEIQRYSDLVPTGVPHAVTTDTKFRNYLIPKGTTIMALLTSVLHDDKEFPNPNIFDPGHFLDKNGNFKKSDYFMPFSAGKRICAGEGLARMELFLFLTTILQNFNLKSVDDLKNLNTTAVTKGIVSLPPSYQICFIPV
Experimental: as §1

[4] = target: CYP2C9 (Homo sapiens, UniProt P11712); experiment: In vitro CYP phenotyping and metabolism study, recombinant CYP2C9; format: in vitro ADME
Experimental: as §1

[5] = target: CYP2C19 (Homo sapiens, UniProt P33261); experiment: In vitro CYP phenotyping and metabolism study, recombinant CYP2C19; format: in vitro ADME
Experimental: as §1

[6] = target: CYP2D6 (Homo sapiens, UniProt P10635); experiment: In vitro CYP phenotyping and metabolism study, recombinant CYP2D6; format: in vitro ADME
Experimental: as §1

[7] = target: CYP3A4 (Homo sapiens, UniProt P08684); experiment: In vitro CYP phenotyping and metabolism study, recombinant CYP3A4; format: in vitro ADME
Experimental: as §1

[8] = Phase 1 study: safety and tolerability; format: in vivo, human
Excerpt: Safety was monitored through recording of adverse events (AEs), clinical laboratory evaluations (clinical chemistry, hematology, coagulation parameters, and urinalysis), vital sign measurements, 12-lead electrocardiograms (ECGs), and physical examination findings during the study.
Safety measures for this study included AEs, incidence of laboratory abnormalities (based on hematology, clinical chemistry, coagulation, and urinalysis test results), 12-lead ECG parameters, vital sign measurements, and physical examinations.
All adverse events and observed values from clinical laboratory evaluations, 12-lead ECGs, vital sign measurements, and physical examinations were listed and summarized descriptively. No inferential statistical analyses were planned for the safety data.
The condition of each subject was monitored throughout the study. Any AEs and remedial actions required were recorded. The nature, time of onset, duration, and severity were documented, together with the Investigator's opinion of the relationship to drug administration. Any clinically significant abnormalities found during the course of the study were followed up until they returned to normal or could be clinically explained.

[9] = tested on: plasma protein; details: cited from earlier work

Chain of CYP3A4 (P08684 whole entry): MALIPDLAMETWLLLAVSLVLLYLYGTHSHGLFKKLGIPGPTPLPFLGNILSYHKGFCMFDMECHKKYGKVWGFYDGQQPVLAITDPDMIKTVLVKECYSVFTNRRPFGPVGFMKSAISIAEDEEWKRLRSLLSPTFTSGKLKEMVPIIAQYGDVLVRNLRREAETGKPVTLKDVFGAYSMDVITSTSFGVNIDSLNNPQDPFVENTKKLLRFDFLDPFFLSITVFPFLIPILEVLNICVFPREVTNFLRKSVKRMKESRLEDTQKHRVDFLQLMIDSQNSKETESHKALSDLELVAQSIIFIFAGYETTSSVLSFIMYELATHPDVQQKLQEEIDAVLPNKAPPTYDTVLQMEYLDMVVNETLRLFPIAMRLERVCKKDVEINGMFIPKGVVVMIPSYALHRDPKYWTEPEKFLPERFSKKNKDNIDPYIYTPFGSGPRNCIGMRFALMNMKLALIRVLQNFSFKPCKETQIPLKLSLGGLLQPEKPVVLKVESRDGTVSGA
Chain of CYP2D6 (P10635 whole entry): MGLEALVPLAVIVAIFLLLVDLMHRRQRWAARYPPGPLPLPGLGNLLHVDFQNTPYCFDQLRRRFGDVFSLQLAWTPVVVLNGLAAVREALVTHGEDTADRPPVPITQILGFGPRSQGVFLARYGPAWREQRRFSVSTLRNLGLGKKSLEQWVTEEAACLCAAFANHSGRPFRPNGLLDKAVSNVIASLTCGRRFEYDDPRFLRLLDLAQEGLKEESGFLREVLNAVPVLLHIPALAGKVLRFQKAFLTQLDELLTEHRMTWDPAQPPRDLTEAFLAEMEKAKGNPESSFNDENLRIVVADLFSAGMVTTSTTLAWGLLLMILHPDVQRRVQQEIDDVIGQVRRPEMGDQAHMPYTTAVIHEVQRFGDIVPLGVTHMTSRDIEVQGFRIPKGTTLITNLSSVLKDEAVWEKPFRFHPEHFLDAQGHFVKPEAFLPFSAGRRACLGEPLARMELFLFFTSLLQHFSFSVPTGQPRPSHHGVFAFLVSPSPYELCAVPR
Chain of CYP2C19 (P33261 whole entry): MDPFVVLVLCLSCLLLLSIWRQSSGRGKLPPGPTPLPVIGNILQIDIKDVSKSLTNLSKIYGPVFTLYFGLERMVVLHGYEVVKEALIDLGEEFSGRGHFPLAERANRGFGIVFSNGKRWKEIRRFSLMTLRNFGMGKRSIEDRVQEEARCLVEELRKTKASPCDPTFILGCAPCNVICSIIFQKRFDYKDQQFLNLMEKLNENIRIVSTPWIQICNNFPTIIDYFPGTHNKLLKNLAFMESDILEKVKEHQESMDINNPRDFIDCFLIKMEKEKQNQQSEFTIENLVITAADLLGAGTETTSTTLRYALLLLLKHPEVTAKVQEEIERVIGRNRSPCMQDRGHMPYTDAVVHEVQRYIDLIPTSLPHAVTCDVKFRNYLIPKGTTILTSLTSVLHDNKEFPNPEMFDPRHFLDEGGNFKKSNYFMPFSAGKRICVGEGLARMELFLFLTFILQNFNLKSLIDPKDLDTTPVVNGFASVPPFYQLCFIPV
Chain of CYP2C9 (P11712 whole entry): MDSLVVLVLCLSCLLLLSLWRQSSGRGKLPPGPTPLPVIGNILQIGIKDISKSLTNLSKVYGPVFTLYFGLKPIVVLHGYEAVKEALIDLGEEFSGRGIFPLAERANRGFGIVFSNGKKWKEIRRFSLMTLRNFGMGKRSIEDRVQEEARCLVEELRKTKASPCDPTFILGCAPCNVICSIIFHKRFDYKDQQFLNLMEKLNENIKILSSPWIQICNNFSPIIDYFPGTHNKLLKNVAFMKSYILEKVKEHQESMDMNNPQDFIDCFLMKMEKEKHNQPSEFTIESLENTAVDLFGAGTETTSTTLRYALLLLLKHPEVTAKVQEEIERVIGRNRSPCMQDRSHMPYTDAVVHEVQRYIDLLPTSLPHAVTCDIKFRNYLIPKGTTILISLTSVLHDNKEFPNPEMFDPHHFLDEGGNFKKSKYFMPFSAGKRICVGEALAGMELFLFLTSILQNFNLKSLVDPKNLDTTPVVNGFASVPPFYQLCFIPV

Structure (SMILES): N#CC1(c2ccc(NC(=O)c3cccnc3NCc3ccncc3)cc2)CCCC1 [Rivoceranib, N-[4-(1-cyanocyclopentyl)phenyl]-2-{[(pyridin-4-yl)methyl]amino} pyridine-3-carboxamide]
- rivoceranib consumed at 60 minute incubation ([1]; CYP1A2): less than 10%
- % Remaining at 60 minute incubation ([1]; Recombinant CYP1A2, 5 μM): 94.7%
- CLINT ([1]; Recombinant CYP1A2, 5 μM): 0.041 μL/minunte/mg
- half-life at 5 µM ([1]; human, Recombinant CYP1A2, 5 μM, read-out: t½): 11.2 h
- rivoceranib consumed at 60 minute incubation ([2]; CYP2B6): less than 10%
- % Remaining at 60 minute incubation ([2]; Recombinant CYP2B6, 5 μM): 96.3%
- CLINT ([2]; Recombinant CYP2B6, 5 μM): 0.020 μL/minunte/mg
- half-life at 5 µM ([2]; human, Recombinant CYP2B6, 5 μM, read-out: t½): 5.73 h
- rivoceranib consumed at 60 minute incubation ([3]; CYP2C8): less than 10%
- % Remaining at 60 minute incubation ([3]; Recombinant CYP2C8, 5 μM): 103%
- CLINT ([3]; Recombinant CYP2C8, 5 μM): 0.037 μL/minunte/mg
- half-life at 5 µM ([3]; human, Recombinant CYP2C8, 5 μM, read-out: t½): 12.6 h
- rivoceranib consumed at 60 minute incubation ([4]; CYP2C9): less than 10%
- % Remaining at 60 minute incubation ([4]; Recombinant CYP2C9, 5 μM): 90.3%
- CLINT ([4]; Recombinant CYP2C9, 5 μM): 0.119 μL/minunte/mg
- half-life at 5 µM ([4]; human, Recombinant CYP2C9, 5 μM, read-out: t½): 3.9 h
- rivoceranib consumed at 60 minute incubation ([5]; CYP2C19): less than 10%
- % Remaining at 60 minute incubation ([5]; Recombinant CYP2C19, 5 μM): 98.9%
- CLINT ([5]; Recombinant CYP2C19, 5 μM): 0.057 μL/minunte/mg
- half-life at 5 µM ([5]; human, Recombinant CYP2C19, 5 μM, read-out: t½): 8.05 h
- rivoceranib consumed at 60 minute incubation ([6]; CYP2D6): more than 60%
- % Remaining at 60 minute incubation ([6]; Recombinant CYP2D6, 5 μM): 34.9%
- CLINT ([6]; Recombinant CYP2D6, 5 μM): 0.587 μL/minunte/mg
- half-life at 5 µM ([6]; human, Recombinant CYP2D6, 5 μM, read-out: t½): 0.787 h
- rivoceranib consumed at 60 minute incubation ([7]; CYP3A4): more than 60%
- % Remaining at 60 minute incubation ([7]; Recombinant CYP3A4, 5 μM): 37.6%
- CLINT ([7]; Recombinant CYP3A4, 5 μM): 0.704 μL/minunte/mg
- half-life at 5 µM ([7]; human, Recombinant CYP3A4, 5 μM, read-out: t½): 0.657 h
- tolerability ([8]; 200 mg single dose (freebase), healthy subjects and subjects with mild and moderate hepatic impairment): well tolerated
- subjects with treatment-emergent adverse events (TEAEs) ([8]; 200 mg single dose, 27 subjects overall, both in the Mild hepatic impairment group): 2 (7.4%) subjects
- laboratory, ECG, physical examination abnormalities ([8]; 200 mg single dose, all groups): no clinically significant laboratory, ECG, or physical examinations abnormalities
- treatment emergent SAEs, TEAEs leading to discontinuation, deaths ([8]; 200 mg single dose, all groups): No treatment emergent serious adverse events (SAEs), TEAEs leading to discontinuation, or deaths
- plasma protein binding [9]: 97%
